The text below walks through data of patent publication US8962575B2, “Clerodane derivatives for modulation of leukotriene receptor activity and related diseases” (Biotropics Malaysia Berhad, priority 2011, dated 2015).

For the assay, the target named is T1, Human BLT2 Receptor (Homo sapiens, UniProt Q9NPC1).
T1 construct: host or cells: BLT2 HEK293T cells transiently transfected with chimeric G protein Gαqi5
T1 sequence (Q9NPC1 1-358): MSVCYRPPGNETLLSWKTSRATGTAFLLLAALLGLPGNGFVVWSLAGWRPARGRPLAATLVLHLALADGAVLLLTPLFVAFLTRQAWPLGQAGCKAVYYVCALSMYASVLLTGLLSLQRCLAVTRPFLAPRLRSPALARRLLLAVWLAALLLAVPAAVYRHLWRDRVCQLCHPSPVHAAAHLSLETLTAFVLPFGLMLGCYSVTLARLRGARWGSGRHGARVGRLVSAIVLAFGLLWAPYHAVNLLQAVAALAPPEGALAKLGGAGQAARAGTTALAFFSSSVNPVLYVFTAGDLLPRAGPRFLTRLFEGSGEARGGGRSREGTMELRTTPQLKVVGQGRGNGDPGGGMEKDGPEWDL
Briefly: Recombinant cell assay (calcium flux, antagonist mode, LTB4 pre-stimulation). The conditions noted are these: pure compounds at 10 μM, 5 min pre-incubation; antagonist mode with LTB4; BLT2 HEK293T cells. The class given is cell-based. How it is done: A) Recombinant Cell Assay (Human BLT2 Receptor)
The BLT2 assay conducted was a functional cell based assay, with transiently transfected HEK293T cells (Transfection: with chimeric G protein Gαqi5; Minami et al, “Analysis of the effects of halothane on Gi-coupled muscarinic M2 receptor signal” Pharmacology (2004) 72: 205-12). […] The test items were measured subsequently in the antagonist mode as described above in a concentration of 10 μM (pure compounds) or 15 μg/ml (extracts and/or mixtures).
This assay was performed by Multispan, Inc., Hayward (CA, USA) under the catalog no C1272, the assay principle is outlined by Yokomizo (J Exp Med (2000) 192:421-432).
• Cells: BLT2 HEK293T cells transiently transfected with chimeric G protein Gαqi5 • Compounds: Test compounds dissolved in DMSO at a concentration of 10 mM or 100 mg/mL.
Calcium assay: Cells were seeded in 384-well plates at appropriate densities and cultured overnight. Calcium assays were conducted according to the manufacturer's protocol using Molecular Devices FLIPR Calcium 4 Assay kit. Calcium 4 dye loading buffer was added to the cells and incubated for one hour at 37° C. The test compounds were pre-incubated for 5 minutes at a final concentration of 10 μM or 15 μg/mL, respectively. Calcium flux was measured for 90 seconds with the respective agonist compound injected into the wells at 19th second. Agonist was used at a concentration in which maximum reaction was observed.
Data analysis: Calcium assay results are expressed as “RFU” (Relative Fluorescence Units) and are shown in the following table as “remaining % RFU against DMOS) (meaning % Increase in RFU after correction for DMSO and baseline). Two-tailed Student's t-test was used for treatment comparisons and statistic significance was defined as p<0.05.
For orientation: Calcium assays in cells follow changes in intracellular calcium, usually with a dye or a luminescent sensor.

With `COC(=O)C1=CC(O)CC2C3(C)CC(c4ccoc4)OC(=O)C3CC(OC3OC(CO)C(O)C(O)C3O)C12C` (stereo not drawn) [COI 4, methyl 2-(furan-3-yl)-9-hydroxy-6a,10b-dimethyl-4-oxo-6-(3,4,5-trihydroxy-6-(hydroxymethyl)tetrahydro-2H-pyran-2-yloxy)-2,4,4a,5,6,6a,9,10,10a,10b-decahydro-1H-benzo[f]isochromene-7-carboxylate], the “remaining % RFU against DMSO [%]” value came out at 78.6%.

As for `COC(=O)C1=CCCC2C3(C)CC(c4ccoc4)OC(=O)C3CC(OC3OC(CO)C(OC4OC(CO)C(O)C(O)C4O)C(O)C3O)C12C` (stereo not drawn) [COI 5, methyl 6-(3,4-dihydroxy-6-(hydroxymethyl)-5-(3,4,5-trihydroxy-6-(hydroxymethyl)tetrahydro-2H-pyran-2-yloxy)tetrahydro-2H-pyran-2-yloxy)-2-(furan-3-yl)-6a,10b-dimethyl-4-oxo-2,4,4a,5,6,6a,9,10,10a,10b-decahydro-1H-benzo[f]isochromene-7-carboxylate], the “remaining % RFU against DMSO [%]” value worked out at 79.7%.

In the case of `CC12CC(c3ccoc3)OC(=O)C1CC1OC(=O)C3(O)C(OC4OC(CO)C(O)C(O)C4O)CCC2C13C` (stereo not drawn) [COI 7, 9-(furan-3-yl)-3a-hydroxy-3a1,10a-dimethyl-3-(3,4,5-trihydroxy-6-(hydroxymethyl)tetrahydro-2H-pyran-2-yloxy)decahydroisobenzofuro[7,1-fg]isochromene-4,7(3a1H,5aH)-dione], the “remaining % RFU against DMSO [%]” value came out at 83.2%.
